Data on one compound can be found in patent publication US20230391727A1, “ANALOGUES OF PENTAMIDINE AND METHODS FOR TREATING INFECTIONS” (Auransa Inc., priority 2020, published 2023).

Converted amounts (≈) assume the structure as drawn.

By mortality is commonly meant the percentage killed. A low value points to more survivors. A word on the MIC: it is the smallest concentration in the dilution series that meets the test's criterion for growth inhibition.

In data set [1] the test system is S. aureus VRS-2. In words: S. aureus VRS-2 peritonitis infection model. Type of data set: in vivo, female ICR mice. The method, then:
The efficacy of compound 3 was evaluated in the S. aureus VRS-2 peritonitis infection model. The test article, compound 3 at 0.1, 0.3 and 1 mg/kg, was intraperitoneally (IP) administered twice at 2 and 16 h after infection; as well as once at 2 mg/kg at 2 h post-infection. The control reference agent, linezolid at 50 mg/kg, was orally (PO) administered once at 1 h post-infection. […] All animals in the vehicle group succumbed to infection between Day 1 to Day 2, resulting in 100% mortality, and a mean 15 h survival time. […] In the compound 3 at 1 mg/kg IP BID dose group, one out of eight animals survived till Day 7 of the study period, resulting in 13% survival rate, and a mean 33 h survival time.
For efficacy testing, the 0.4 mg/mL compound 3 solution was prepared by dissolving 1.21 mg of compound 3, corresponding to active ingredient of 1.02 mg with a correction factor of 1.19, in 2.55 mL of WFI. The 0.4 mg/mL compound 3 working solution was further diluted with WFI to generate three lower dosing solutions of 0.2, 0.06 and 0.02 mg/mL. All dosing solutions were soluble and colorless.
PDS supplied vancomycin and linezolid as reference controls for both MIC and in vivo studies. […] The 3.2 mg/mL linezolid 50× stock solution was prepared by dissolving 1.0 mg of linezolid in 0.313 mL of DMSO. Both solutions were colorless and soluble. For efficacy testing, one tablet of linezolid, at 600 mg, was dissolved in 12 mL of 1% Tween 80 in saline (0.9% NaCl) to generate a 50 mg/mL of stock solution. The 50 mg/mL linezolid stock solution was further diluted with 1% Tween 80 in 0.9% NaCl to generate the dosing solution of 5 mg/mL. Both solutions were insoluble with white color.
The S. aureus strain VRS-2 peritonitis infection model was performed with immunocompetent female ICR mice, weighing 22±2 g. All animals were specific pathogen free. The PDS standard protocol for preparing S. aureus cultures for mouse infection studies was followed. A 0.2 mL aliquot of a single-use glycerol stock (at −80° C.) was used to seed […] heart infusion (BHI) and then incubated at 35-37° C. with shaking (250 rpm) for 8 h. Bacterial cells in the 20 mL was pelleted by centrifugation (3,500×g) for 15 minutes, and then re-suspended in 10 mL cold phosphate buffer saline (PBS). The optical density, OD620 nm, was measured and used to guide dilution. The PBS suspensions were stored on ice for no more than 1 h prior to animal inoculation. The dilutions were performed by 1:1 dilution of BHI broth containing hog gastric mucin to obtain the target inoculum density, 1×10^8 CFU/mouse, per 0.5 mL with 5% mucin (final concentration). The actual colony count was determined by plating dilutions to nutrient agar (NA) plates followed by 20-24 h incubation at 35-37° C.
On Day 0, animals were infected with bacterial suspension with 5% mucin by intraperitoneal injection. The actual inoculum was 1.93×10^8 CFU/mouse with a target inoculum of 1×10^8 CFU/mouse in the peritonitis infection model. Test article, compound 3, was formulated in WFI and intraperitoneally (IP) administered with the dose schedule and concentrations indicated in the study design. Doses were administered once at 2 h post-infection or twice (BID) at 2 and 16 h post-infection. The animals were monitored for survival up to 7 days, twice daily (AM 9:00/PM 17:00). […]
Animals were monitored for mortality twice daily (AM 9:00/PM 17:00) for 7 days after infection. […]

A short description of data set [2]: Pharmacokinetic analysis, tissue and plasma exposure. The following applies: male C57BL6 mice, 10 mg/kg subcutaneous administration; kidney, liver, and lung.
Procedure: To determine whether target concentrations/exposures of these compounds can be achieved at various target organs, exposures of compound 3 were tested in kidney, liver, spleen, lung peritoneal fluid and plasma of male C57BL6 mice (5 mice per group). Compound 3 was dosed at 10 mg/kg subcutaneously with each group having samples taken at time indicated (FIG. 7).
The subject of data set [3] is Staphylococcus aureus ATCC 33591 (MRSA). In words: MIC assay against gram positive and antibiotic-resistant S. aureus. The class given is cell-based. The following applies: Staphylococcus aureus ATCC 33591, MRSA; read-out: MIC. The method, then: (§1) The MICs of vancomycin and linezolid were determined as quality controls and the MIC values of each strain met the acceptance criteria based on PDS historical reference data.
(§2) The direct colony suspension method was used to prepare inoculated broth. Isolated colonies were taken from an 18-24 h culture plate. Optical density measurements (OD620 nm) were used to estimate the bacterial density. The test article, compound 3, and reference control stock solutions were prepared in 100% DMSO as 50× stock solutions. The 50× stock solutions were diluted by 2-fold serial titrations with 100% DMSO for a total of 11 concentrations. A 4 μL aliquot of each dilution was added to 196 μL of cation-adjusted Mueller Hinton Broth II medium seeded with the organism in wells of a 96 well plate. The final vehicle concentration was two percent (2%) in all assay wells. The final bacterial count was 2 to 8×10^5 CFU/mL. The final compound 3 concentration range was 16 to 0.016 μg/mL. Each test substance dilution was evaluated in duplicate on one test occasion. Vehicle-control and reference controls were used as blank and positive controls, respectively. Plates were incubated at 35-37° C. for 18 h. The test plates were visually examined and each well was visually scored for growth or complete inhibition of growth. The MIC value was recorded.

Data set [4] relates to Staphylococcus aureus ATCC 19636. The data set is described as above. Type of data set: cell-based. The note with it: ATCC19636; Staphylococcus aureus ATCC 19636; read-out: MIC. The method, then: as §1, §2
Data set [5] concerns Staphylococcus aureus VRS-2 (VRSA). The description is as above. The class given is cell-based. The note with it: Staphylococcus aureus VRS-2, VRSA; read-out: MIC. The method, then: as §1, §2
In data set [6] the test system is Staphylococcus aureus BAA-1556 (MRSA). The description is as above. The note with it: Staphylococcus aureus BAA-1556, MRSA; read-out: MIC. Type of data set: cell-based. How it is done: as §1, §2

In data set [1] (1 mg/kg IP BID (2 and 16 h after infection)), `N=C(N)c1ccc(CC[C@H]2CCC[C@@H](CCc3ccc(C(=N)N)cc3)C2)cc1` [Compound 3, 4,4′-(2,2′-((1R,3S)-cyclohexane-1,3-diyl)bis(ethane-2,1-diyl))dibenzimidamide] came in with a mean survival time of 33 h. Further, the survival rate in data set [1] (1 mg/kg IP BID (2 and 16 h after infection), Day 7) is recorded as 13%. Moreover, in data set [1] (0.1 and 0.3 mg/kg IP BID, and single dose of 2 mg/kg), the mortality is listed as 100%. Also, the “exposure relative to target concentrations for pharmacology” value in data set [2] was “target concentrations for pharmacology could be achieved”. Moreover, the minimum inhibitory concentration (MIC) in data set [3] was determined as 0.125 mg/L (≈ 0.332 µM); in data set [4] it was 0.125 mg/L (≈ 0.332 µM); in data set [5] it was 0.25 mg/L (≈ 0.664 µM); in data set [6], 0.25 mg/L (≈ 0.664 µM).
